Consider 22 compounds from PubChem BioAssay (NCI).

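Method: 48-hour compound exposure of cells in 96-well plates, five concentrations, linear interpolation of endpoints. Here, GI50 denotes the concentration required for 50% inhibition of growth. TGI denotes the concentration required for complete inhibition of growth.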

Assay in all cases: NCI tumour cell line growth inhibition, 48 h
In assay [1] the test system is UACC-257 melanoma.
In assay [2] the test system is UACC-62 melanoma.
Assay [3] has as its system A549 NSCLC.
Assay [4] concerns ACHN renal.
The test system of assay [5] is M14 melanoma.
The subject of assay [6] is MDA-MB-231 breast.
Assay [7] has as its system HOP-92 NSCLC.
For assay [8], the system named is HL-60(TB) leukemia.
In assay [9] the test system is RXF 393 renal.
For assay [10], the system named is NCI-H522 lung.

In the case of `N#Cc1cc(F)cc(Oc2ccc(S(=O)(=O)C(F)F)c3c2CC(F)(F)[C@H]3O)c1`, the GI50 in assay [1] is 24.6 µM; in assay [2], 21.7 µM; in [3], 27.9 µM; in [4], 30.4 µM; in assay [5] it was 30.1 µM; in assay [6] it was 22.3 µM. Moreover, the GI50 in assay [7] is 16 µM; in assay [8], 27.4 µM; in assay [9], 21.5 µM; in assay [10], 19.1 µM. For the same compound, the TGI in [1] was 79.1 µM; in assay [2], above 100 µM; in assay [3] it was above 100 µM; in [4], above 100 µM; in assay [5], above 100 µM; in [6], 73.2 µM. Further, the TGI was 46.5 µM in assay [7], 87.2 µM in [8], above 100 µM in [9] and 88.7 µM in assay [10].

For `CC(=O)Oc1cc2c(cc1OCC(F)(F)F)[C@H]1CC[C@]3(C)[C@@H](OC(C)=O)CC[C@H]3[C@@H]1CC2=O`, the TGI was 72.8 µM in [1]; 42.6 µM in assay [2]; 77.7 µM in assay [3]; 60 µM in [4]; above 78.6 µM in assay [5]; 60.2 µM in [6]. In addition, the TGI in assay [7] is 40.2 µM; in assay [8], 34.7 µM; in [9] it was 50 µM; in [10] it was above 70 µM.

Consider `CC[C@]1(c2ccc3c(c2)OCO3)C=[N+]([O-])O[C@H](OC2CCCC2(c2ccccc2)c2ccccc2)[C@@H]1OC(C)=O` (stereo not given in full), for which the TGI in [1] was 7.62 µM; in assay [2], 4.64 µM; in [3], 11.4 µM; in [4], 9.75 µM; in [5] it was 4.84 µM; in assay [6], above 21.7 µM. Moreover, the TGI in assay [7] turned out to be 76.1 µM; in assay [8], 12.1 µM; in assay [9], 2.63 µM; in assay [10] it was 4.78 µM.

Regarding `O=C(/C=C/c1ccccc1)c1cc(CN2CCOCC2)c(O)c(CN2CCOCC2)c1`, the TGI is 31.1 µM in assay [1]; 39.5 µM in assay [2]; 33.2 µM in assay [3]; 8.26 µM in assay [4]; 43.2 µM in assay [5]; 32.7 µM in assay [6]. The TGI is 26.9 µM in assay [7], 27.4 µM in assay [8], 35.8 µM in assay [9] and above 100 µM in assay [10].

For the compound `C[C@H]1CCC/C=C/[C@@H]2C[C@H](OC3OC(CO)C(O)C(O)C3O)C[C@H]2[C@H](O)/C=C/C(=O)O1` (stereo not given in full), the TGI in assay [1] was 78.9 µM; in assay [2] it was above 100 µM; in assay [3], above 100 µM; in assay [4], above 100 µM; in assay [5] it was above 100 µM; in [6], 42.9 µM. Besides, the TGI in assay [7] was above 100 µM; in [8], above 100 µM; in [9], 87.3 µM; in assay [10], above 100 µM.

Consider `CC(C)OC(=O)C(NC(=O)C(CC(=O)OCc1ccccc1)NC(=O)OCc1ccccc1)NC(=O)C1C(C)(C)CCC1(C)C` (stereo not given), for which the TGI in assay [1] is above 60.8 µM; in [2], 47.9 µM; in [3], 5.07 µM; in [4], 14.7 µM; in [5], above 57.1 µM; in assay [6] it was 7.82 µM. Moreover, the TGI in assay [7] was 24.1 µM; in assay [8], above 40.4 µM; in [9], 12.7 µM; in assay [10], 24.1 µM.

For the compound `CN(C)c1cccc2c(S(=O)(=O)NCCN)cccc12`, the TGI in [1], in [2], in assay [3], in assay [4], in assay [5] and in assay [6] was above 100 µM in each case. In addition, the TGI in assay [7], in assay [8], in assay [9] and in assay [10] was above 100 µM throughout.

Regarding `CC(=O)c1c(-c2ccc(Cl)cc2)c(C#N)c(=S)n(C2OC(CO)C(O)C(O)C2O)c1C` (stereo not given), the TGI in assay [1] was above 100 µM; in assay [2], 57.8 µM; in [3] it was above 100 µM; in assay [4] it was above 100 µM; in assay [5] it was above 100 µM; in [6], above 100 µM. In addition, the TGI is 65.6 µM in [7], 54 µM in [8], above 100 µM in [9] and above 100 µM in assay [10].

On to `CCc1c(O)nc(Nc2nc3ccccc3[nH]2)[nH]c1=O`, for which the TGI in [1], in assay [2], in assay [3], in assay [4], in [5] and in assay [6] was above 100 µM throughout. Besides, the TGI in assay [7], in assay [8], in [9] and in assay [10] was above 100 µM throughout.

With `C/C(=N\NC(=S)NC(C)(C)C)c1nc2ncccc2[nH]1`, the TGI in [1] is above 100 µM; in [2] it was 46.7 µM; in [3], 43.4 µM; in [4], above 100 µM; in assay [5] it was above 100 µM; in assay [6], above 100 µM. In addition, the TGI in assay [7] is 42.9 µM; in assay [8] it was above 21.6 µM; in assay [9], above 100 µM; in [10], 51.2 µM.

`C/C(=N/NC(=S)Nc1ccc(C)cc1)c1ccccn1`: the TGI in [1] turned out to be 0.802 µM; in [2], 2.64 µM; in assay [3] it was 14 µM; in [4], 11.9 µM; in assay [5] it was 2.37 µM; in assay [6], 18.7 µM. Moreover, the TGI came out at 12.5 µM in assay [7], 0.608 µM in assay [8], 11 µM in assay [9] and 12 µM in assay [10].

For `C[n+]1c2ccccc2n2c3ccccc3c(NCCCn3ccnc3)c(C#N)c21`, the TGI was 35.5 µM in assay [1]; 17.6 µM in assay [2]; 32.2 µM in assay [3]; above 27.7 µM in assay [4]; 5.23 µM in assay [5]; 9.18 µM in assay [6]. In addition, the TGI in assay [7] was above 20.2 µM; in assay [8] it was 20.3 µM; in assay [9], 3.48 µM; in assay [10] it was 2.18 µM.

For `O=C(N/N=C/c1ccccc1)c1c(F)c(F)c(F)c(F)c1F`, the TGI in assay [1], in assay [2], in [3], in assay [4], in assay [5] and in assay [6] was above 100 µM in each case. Further, the TGI in assay [7] was above 100 µM; in assay [8], above 100 µM; in assay [9], above 100 µM; in assay [10] it was 49.2 µM.

For `COC(=O)CCC(C)[C@H]1CCC2C3CC[C@@H]4CC5(CC[C@]4(C)C3C[C@H](OC(C)=O)[C@@]21C)OOC1(CCCCC1)OO5` (stereo not given in full), the TGI in assay [1], in assay [2], in assay [3], in assay [4], in [5] and in assay [6] was above 100 µM in each case. Moreover, the TGI in assay [7] is above 100 µM; in assay [8] it was 8.89 µM; in assay [9], above 100 µM; in [10], 40.5 µM.

Take `O=c1[nH]nc(Nc2ccc(Cl)cc2)c2nnn(C3CCCCC3)c12`: the TGI in assay [1] is above 100 µM; in assay [2], above 100 µM; in assay [3] it was above 100 µM; in assay [4] it was above 100 µM; in assay [5], above 100 µM; in assay [6], 45.2 µM. Further, the TGI in [7] is 66 µM; in [8], above 100 µM; in [9], 92.8 µM; in assay [10], 81.7 µM.

As for `CCCCCCCCCCCCCCCCNc1nc(=O)n(C2OC(C)C(O)C2O)cc1F` (stereo not given), the TGI worked out at 35.5 µM in assay [1]; 29 µM in assay [2]; 48 µM in [3]; 29 µM in [4]; 33.5 µM in assay [5]; 42 µM in [6]. The TGI was 45.7 µM in assay [7], 75.1 µM in [8], 44.8 µM in assay [9] and 39 µM in [10].

In the case of `O=c1[nH]c2c(Nc3c4ccccc4nc4ccccc34)c([N+](=O)[O-])c(Nc3c4ccccc4nc4ccccc34)c([N+](=O)[O-])c2[nH]1`, the TGI in assay [1] worked out at 10.4 µM; in assay [2] it was 3.32 µM; in assay [3] it was 3.56 µM; in assay [4], 4.78 µM; in [5], 4.76 µM; in assay [6], 4.92 µM. For the same compound, the TGI in assay [7] is 4.74 µM; in assay [8] it was above 23.7 µM; in assay [9], 7.19 µM; in [10] it was 2.82 µM.

Consider `CC1(C)CCC[C@@]2(C)C1CC[C@@]1(CO)O[C@H](C3=CC(=O)OC3O)C[C@H]12` (stereo not given in full), for which the TGI in assay [1] is 35 µM; in [2], 15.3 µM; in assay [3], above 86.1 µM; in [4], above 53.5 µM; in assay [5] it was 31.8 µM; in assay [6], 36.1 µM. In addition, the TGI in [7] stood at 38.2 µM; in assay [8] it was 4.31 µM; in assay [9], 23.7 µM; in [10], 17.4 µM.

`CC1=NC(=N)N=C(C)C1N=Nc1ccc2nc(C)[nH]c2c1` (stereo not given): the TGI in assay [1], in assay [2], in assay [3], in [4], in assay [5] and in [6] was above 100 µM throughout. Further, the TGI in assay [7], in [8], in assay [9] and in assay [10] was above 100 µM in each case.

As to `COCc1cc2c(s1)C(=O)C1=C(C2=O)C2(C=C(Br)C(=O)C(Br)=C2)CCN1`, the TGI in assay [1] came to 3.32 µM; in [2] it was 3.08 µM; in assay [3], 19.4 µM; in [4], 18 µM; in assay [5], 4.32 µM; in assay [6], 15.2 µM. Also, the TGI in assay [7] came to 15.1 µM; in [8], 16.3 µM; in assay [9] it was 6.94 µM; in assay [10] it was 7.31 µM.

As to `COc1cc(C=O)cc(C=Nc2ccc(Br)cc2)c1O`, the TGI in assay [1] is 34 µM; in [2], 50.1 µM; in [3], above 100 µM; in assay [4], 49.4 µM; in assay [5], 14.2 µM; in assay [6], 37.8 µM. Also, the TGI in assay [7] came to 39.6 µM; in assay [8], 56.8 µM; in [9] it was 15 µM; in assay [10], 23.5 µM.

For `CCNC(=S)N/N=C(/C)c1cccc(/C(C)=N\NC(=S)NCC)n1`, the TGI is 31.6 µM in assay [1]; 27.2 µM in assay [2]; above 82.9 µM in assay [3]; above 66.9 µM in [4]; 19.9 µM in assay [5]; above 84.2 µM in assay [6]. Besides, the TGI in assay [7] was 24.6 µM; in assay [8] it was 7.9 µM; in [9], 33.5 µM; in [10], 24.5 µM.
